These are literature values, as cited in patent US8420593B1, “Compositions and methods for regulating membrane potential” (priority 2006, dated 2013).

Each structure is given as a SMILES string. Structures can show the parent of a compound that is named as a salt. Where two headings read alike, the source gives them in different places.

The subject of data set [1] is chronic spinal cord injury. Particulars: in vivo.
The test system of data set [2] is spinal cord injury. Particulars: days 25, 26 and 27.
The test system of data set [3] is spinal cord injury.
In data set [4] the test system is sodium channels.
The subject of data set [5] is potassium currents in PC12 cells.

In the case of `Nc1ccncc1` [4-AP, 4-aminopyridine], in data set [1], the “side effects associated with central nervous system activation” value was “restlessness, confusion, and infrequently reported findings of generalized tonic-clonic seizure”. The “motor function (open field walking analysis)” value in data set [2] (0.6 mg/kg, ip, compared with HP184) is “This improvement was equaled by the improvement observed with 4-AP”.

As to `CCCN(c1ccncc1F)n1cc(C)c2ccccc21` [HP184, N-[N-propyl]-N-[3-fluoro-4-pyridinyl]-1H-3-methylindole-1-amine hydrochloride], the “motor function (open field walking)” value in data set [3] (3 mg/kg, po, long-standing (35 day post injury) injury, moderate intensity) was “significantly improved motor function”. Besides, the “improvement in walking ability, multiple dose studies” value in data set [3] (once a day oral dosing at 3, 1 and 0.3 mg/kg, moderately injured rats, compression model) is “confirmed the effectiveness”. Also, the “activity on sodium channels” value in data set [4] is “use- and frequency dependent blocker of sodium channels”. In data set [5], the “activity on potassium currents” value is listed as “voltage dependent blocker of potassium currents”. Besides, in data set [2] (3, 10 and 20 mg/kg, po, established (25 day post injury) injury, mild intensity), the “motor function (open field walking analysis)” value was “significantly improved motor function”.
